Experimental data taken from publication PMC7262777 (Journal of medicinal chemistry, 2020).

How the values were obtained:
D4R = target: T1, D4R (Homo sapiens, UniProt P21917); assay: DiscoverX gpcrMAX panel, agonist mode, D4R; conditions: 10 μM
T1 sequence (P21917 1-419): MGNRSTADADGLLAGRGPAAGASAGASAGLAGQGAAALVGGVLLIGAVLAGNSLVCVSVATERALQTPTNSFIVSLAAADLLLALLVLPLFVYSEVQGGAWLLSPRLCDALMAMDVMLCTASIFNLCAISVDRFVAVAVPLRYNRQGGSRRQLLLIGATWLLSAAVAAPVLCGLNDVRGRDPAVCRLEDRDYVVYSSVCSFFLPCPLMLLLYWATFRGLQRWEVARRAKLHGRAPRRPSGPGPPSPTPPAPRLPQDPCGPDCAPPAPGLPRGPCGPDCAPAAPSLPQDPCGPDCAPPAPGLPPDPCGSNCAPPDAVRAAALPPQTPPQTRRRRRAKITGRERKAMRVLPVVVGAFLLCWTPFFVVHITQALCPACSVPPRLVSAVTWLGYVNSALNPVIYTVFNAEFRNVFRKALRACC

D3R [1] = target: T2, D3R (Homo sapiens, UniProt P35462); conditions: 10 μM
T2 sequence (P35462 whole entry): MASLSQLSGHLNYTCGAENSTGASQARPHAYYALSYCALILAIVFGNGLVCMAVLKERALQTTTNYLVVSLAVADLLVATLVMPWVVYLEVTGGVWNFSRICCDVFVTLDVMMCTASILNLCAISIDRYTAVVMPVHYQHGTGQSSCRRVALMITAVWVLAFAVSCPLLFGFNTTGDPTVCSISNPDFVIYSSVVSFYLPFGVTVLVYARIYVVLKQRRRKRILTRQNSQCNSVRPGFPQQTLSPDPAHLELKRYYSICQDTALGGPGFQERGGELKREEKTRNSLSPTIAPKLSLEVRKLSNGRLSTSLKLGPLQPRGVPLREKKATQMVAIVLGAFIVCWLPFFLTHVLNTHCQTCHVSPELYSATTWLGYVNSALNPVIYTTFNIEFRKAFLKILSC

chemokine CXCR7 receptor = chemokine CXCR7 receptor (Homo sapiens, UniProt P25106); assay: DiscoverX gpcrMAX panel, agonist mode, CXCR7; conditions: 10 μM
Sequence of chemokine CXCR7 receptor (P25106 whole entry): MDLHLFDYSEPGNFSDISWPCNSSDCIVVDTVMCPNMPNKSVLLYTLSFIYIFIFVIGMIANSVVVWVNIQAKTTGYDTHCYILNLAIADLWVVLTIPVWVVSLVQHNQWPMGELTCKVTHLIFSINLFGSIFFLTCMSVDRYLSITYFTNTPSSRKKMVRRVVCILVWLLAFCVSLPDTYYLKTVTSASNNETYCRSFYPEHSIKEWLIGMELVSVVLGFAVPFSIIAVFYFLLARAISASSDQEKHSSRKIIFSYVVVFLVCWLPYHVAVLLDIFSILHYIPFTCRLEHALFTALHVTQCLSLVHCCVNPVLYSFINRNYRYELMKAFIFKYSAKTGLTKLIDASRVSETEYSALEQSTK

D2R = D2R (Homo sapiens, UniProt P14416); assay: β-arrestin recruitment DiscoverX PathHunter assay, agonist mode, D2R; assay type: cell-based
Sequence of D2R (P14416 whole entry): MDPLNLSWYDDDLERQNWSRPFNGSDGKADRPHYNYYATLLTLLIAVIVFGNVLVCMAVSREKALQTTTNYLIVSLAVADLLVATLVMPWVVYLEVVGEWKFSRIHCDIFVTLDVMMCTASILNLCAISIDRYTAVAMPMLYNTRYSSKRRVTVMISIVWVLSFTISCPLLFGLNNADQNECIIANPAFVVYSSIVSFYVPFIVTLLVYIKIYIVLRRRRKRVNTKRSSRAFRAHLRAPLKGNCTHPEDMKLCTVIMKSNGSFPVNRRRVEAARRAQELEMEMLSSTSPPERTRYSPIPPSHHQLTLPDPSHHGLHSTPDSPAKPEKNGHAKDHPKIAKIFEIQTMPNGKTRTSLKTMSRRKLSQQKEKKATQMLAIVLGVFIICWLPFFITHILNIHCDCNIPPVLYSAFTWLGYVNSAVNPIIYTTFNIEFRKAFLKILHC

human D2RL = human D2RL (Homo sapiens, UniProt P14416); assay: [3H]-methylspiperone competition binding, D2R membranes
Sequence of human D2RL (P14416 whole entry): as above

[2] = test system: D3R-expressing dopaminergic neurons derived from human iPSCs; assay: MTT cell viability, protection from 6-OHDA-induced cell death
human 5-HT2B = human 5-HT2B (Homo sapiens, UniProt P41595); assay: Inositol 1-phosphate; assay type: cell-based
Sequence of human 5-HT2B (P41595 whole entry): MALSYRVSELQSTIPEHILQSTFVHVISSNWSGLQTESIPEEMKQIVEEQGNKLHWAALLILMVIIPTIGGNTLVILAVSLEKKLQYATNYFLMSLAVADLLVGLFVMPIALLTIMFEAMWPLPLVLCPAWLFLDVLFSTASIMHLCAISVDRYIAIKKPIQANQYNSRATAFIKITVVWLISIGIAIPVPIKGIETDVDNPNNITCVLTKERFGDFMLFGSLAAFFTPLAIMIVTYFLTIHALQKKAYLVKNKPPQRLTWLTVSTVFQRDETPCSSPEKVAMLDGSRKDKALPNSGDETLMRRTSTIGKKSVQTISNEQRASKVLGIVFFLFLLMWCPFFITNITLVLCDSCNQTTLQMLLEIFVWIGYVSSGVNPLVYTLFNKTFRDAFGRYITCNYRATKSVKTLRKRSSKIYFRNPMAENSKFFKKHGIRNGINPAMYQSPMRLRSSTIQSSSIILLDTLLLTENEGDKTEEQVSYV

bacteria = assay: Ames reverse mutation assay
ADRA2C = target: T3, ADRA2C (Homo sapiens, UniProt P18825); assay: DiscoverX gpcrMAX panel, antagonist mode, ADRA2C; conditions: 10 μM, percent inhibition of EC80 reference agonist
T3 sequence (P18825 1-462): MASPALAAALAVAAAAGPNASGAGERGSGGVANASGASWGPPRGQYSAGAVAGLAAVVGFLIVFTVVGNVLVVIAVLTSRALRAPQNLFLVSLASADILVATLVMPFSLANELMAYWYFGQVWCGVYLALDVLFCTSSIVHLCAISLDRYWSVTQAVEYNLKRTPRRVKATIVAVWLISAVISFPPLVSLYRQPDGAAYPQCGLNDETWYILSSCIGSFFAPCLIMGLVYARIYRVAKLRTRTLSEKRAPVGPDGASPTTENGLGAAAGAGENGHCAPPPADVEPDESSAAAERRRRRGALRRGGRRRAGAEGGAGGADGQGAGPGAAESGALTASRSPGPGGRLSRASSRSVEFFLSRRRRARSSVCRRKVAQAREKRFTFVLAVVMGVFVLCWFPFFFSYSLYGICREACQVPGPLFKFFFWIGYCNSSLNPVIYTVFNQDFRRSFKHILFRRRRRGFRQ

pKa titration = assay type: physicochemical
[3] = test system: all other receptor subtypes (D1R, D2R, D4R, D5R); assay type: cell-based; conditions: β-arrestin recruitment
HTR2A = HTR2A (Homo sapiens, UniProt P28223); assay: DiscoverX gpcrMAX panel, antagonist mode, HTR2A; assay type: cell-based; conditions: 10 μM, percent inhibition of EC80 reference agonist
Sequence of HTR2A (P28223 whole entry, canonical isoform): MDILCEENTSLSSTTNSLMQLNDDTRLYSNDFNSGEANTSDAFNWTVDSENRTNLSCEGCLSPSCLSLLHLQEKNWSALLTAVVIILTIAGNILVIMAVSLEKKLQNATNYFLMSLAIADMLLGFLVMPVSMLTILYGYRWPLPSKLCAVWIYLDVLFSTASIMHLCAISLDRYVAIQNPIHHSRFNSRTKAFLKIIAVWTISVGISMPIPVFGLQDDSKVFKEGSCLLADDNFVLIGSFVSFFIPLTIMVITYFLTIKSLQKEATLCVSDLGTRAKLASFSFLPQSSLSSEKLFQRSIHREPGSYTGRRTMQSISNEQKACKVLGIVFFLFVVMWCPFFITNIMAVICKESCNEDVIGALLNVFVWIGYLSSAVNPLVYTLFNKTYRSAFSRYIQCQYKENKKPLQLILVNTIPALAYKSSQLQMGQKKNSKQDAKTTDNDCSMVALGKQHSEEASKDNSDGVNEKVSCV

[4] = target: D2R (short and long isoforms) (Homo sapiens, UniProt P14416); assay: DiscoverX gpcrMAX panel, agonist mode, D2R; conditions: 10 μM
Sequence of D2R (short and long isoforms) (P14416 1-414 isoform P14416-2): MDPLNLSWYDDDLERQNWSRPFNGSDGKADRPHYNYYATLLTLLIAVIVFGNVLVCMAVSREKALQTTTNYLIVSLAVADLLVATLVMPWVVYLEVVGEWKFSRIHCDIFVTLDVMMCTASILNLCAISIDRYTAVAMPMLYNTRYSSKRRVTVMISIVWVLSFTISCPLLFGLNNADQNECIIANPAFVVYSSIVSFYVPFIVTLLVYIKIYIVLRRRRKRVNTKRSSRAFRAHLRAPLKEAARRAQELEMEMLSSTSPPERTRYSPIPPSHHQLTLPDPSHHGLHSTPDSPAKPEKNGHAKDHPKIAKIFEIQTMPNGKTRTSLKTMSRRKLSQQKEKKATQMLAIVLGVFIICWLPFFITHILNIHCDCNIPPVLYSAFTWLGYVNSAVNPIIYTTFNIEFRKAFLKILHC

D3R [5] = target: T2, D3R; assay: β-arrestin recruitment DiscoverX PathHunter assay, agonist mode, D3R; assay type: cell-based
168 known GPCRs = conditions: 10 μM
[6] = target: alpha2B-adrenergic receptor (Homo sapiens, UniProt P18089); conditions: 10 μM
Sequence of alpha2B-adrenergic receptor (P18089 whole entry): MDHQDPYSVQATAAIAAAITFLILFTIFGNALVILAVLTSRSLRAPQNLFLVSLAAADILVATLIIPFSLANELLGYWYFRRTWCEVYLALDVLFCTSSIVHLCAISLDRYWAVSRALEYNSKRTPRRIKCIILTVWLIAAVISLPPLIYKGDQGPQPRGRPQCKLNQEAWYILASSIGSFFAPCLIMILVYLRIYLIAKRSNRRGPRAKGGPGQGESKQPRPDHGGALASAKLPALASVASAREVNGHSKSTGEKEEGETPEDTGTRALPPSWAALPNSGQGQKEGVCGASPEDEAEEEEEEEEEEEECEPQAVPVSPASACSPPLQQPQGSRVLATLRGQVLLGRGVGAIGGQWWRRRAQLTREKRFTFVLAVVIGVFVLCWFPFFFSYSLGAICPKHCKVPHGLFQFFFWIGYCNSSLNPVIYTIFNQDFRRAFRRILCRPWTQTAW

CCCN(CC[C@]1(O)C[C@H](NC(=O)c2ccc3ccccc3c2)C1)[C@H]1CCc2nc(N)sc2C1 [CJ-1639]
agonist activity, D4R (gpcrMAX) (D4R): partial agonist activities | agonist activity, D3R (gpcrMAX) (D3R [1]): full agonist | agonist activity, CXCR7 (gpcrMAX) (chemokine CXCR7 receptor): partial agonist activities

COc1ccc(OCCN2CCN(C(=O)c3ccc(OC)cc3)CC2)cc1 [Compound 1, (4-(2-(4-Methoxyphenoxy)ethyl)piperazin-1-yl)(4-methoxyphenyl)methanone]
D2R agonist activity EC50 (D2R; β-arrestin recruitment (DiscoverX), agonist mode): No measurable agonist activity | IC50 for inhibiting [3H]-methylspiperone binding to the D2R (human D2RL): no measurable ability to displace binding

NCCc1cc(O)c(O)cc1O [Compound 6-OHDA, 6-hydroxydopamine]
reduction of cell viability ([2]; 30 μM, 24 hr, no drug (vehicle)): 62 ± 8%

COc1ccc(OCCN2CCN(C(=O)c3cc4ccccc4[nH]3)CC2)cc1 [Compound 20, (1H-Indol-2-yl)(4-(2-(4-methoxyphenoxy)ethyl)piperazin-1-yl)methanone]
5-HT2B agonist activity (IP1 accumulation) (human 5-HT2B; 10 μM): no agonist activity | AMES reverse mutation assay (bacteria): no toxicity was observed | partial antagonist activity, ADRA2C (ADRA2C): 36% | pKa (pKa titration): 8.62 | agonist efficacy at other dopamine receptor subtypes [3]: minimal agonist efficacy | partial antagonist activity, HTR2A (HTR2A): 37% | agonist activity, D2R (gpcrMAX) [4]: small, but measurable agonist responses

COc1ccc2cc(C(=O)N3CCN(CCOc4cccnc4)CC3)[nH]c2c1 [Compound 58, (6-Methoxy-1H-indol-2-yl)(4-(2-(pyridin-3-yloxy)ethyl)piperazin-1-yl)methanone]
D3R agonist activity EC50 (D3R [5]): single-digit nanomolar range

COc1ccc2[nH]c(C(=O)N3CCN(CCOc4cccnc4)CC3)cc2c1 [Compound 59, (5-Methoxy-1H-indol-2-yl)(4-(2-(pyridin-3-yloxy)ethyl)piperazin-1-yl)methanone]
D2R agonist activity Emax (D2R; percentage of the maximum dopamine response): 97 ± 2.8 % control

CCCN[C@H]1CCc2nc(N)sc2C1 [Pramipexole, pramipexole]
antagonist activity at any of the GPCRs tested (168 known GPCRs): did not exhibit antagonist activity | agonist activity, alpha2B-adrenergic receptor (gpcrMAX) [6]: partial agonist activity | agonist activity, D3R (gpcrMAX) (D3R [1]): full agonist activity | agonist activity, D2R (gpcrMAX) [4]: full agonist activity | concentration giving significant reduction in 6-OHDA-induced cell death ([2]; 24 h pretreatment, 30 μM 6-OHDA 24 h, MTT): 500 nM

Cn1ccc2cc3c(cc21)CCN3C(=O)Nc1cccnc1 [SB206553, reference compound]
IC50 (human 5-HT2B): 13 nM
